Experimental data from patent US5658883A, “Biologically active TGF-β1 peptides” (Celtrix Pharmaceuticals, Inc., priority 1995, dated 1997).
Where two headings read alike, the source gives them in different places. Bridge positions count the residues as written; N and C are the ends. Ends that are not written are not given here. Peptide text beside a SMILES is read from it. I, II: the chains in the order shown.

Assays:
[1] = tested on: TGF-β receptor; conditions: for competing against the binding of 125I-TGF-β1: at concentrations of up to 30 μM
Protocol: (§1) Rat muscle myoblasts (L6, American Type Culture Collection) were plated in 6-well culture plates and cultured in DMEM supplemented with 100 units/ml penicillin, 100 μg/ml streptomycin, 2 mM L-glutamine, 10% FBS until the cells were 70-90% confluent. Medium was aspirated from the wells; and 1 ml of ice cold 20 mM glycine, 135 mM NaCl, pH 3.0 was added to each well for 2 min. The buffer was aspirated and each well was rinsed 2 times with 1 ml of DMEM, 25 mM Hepes, pH 7.4, 0.1% BSA. […] Radiolabeled TGF-β samples (500 μl ) either without unlabeled TGF-β or with excess unlabeled TGF-β (20-25 nM) were prepared and added to other wells. After 1 hr incubation at room temperature, each well was rinsed 2 times with 1 ml of Hank's balanced saline solution, 0.1% BSA. To each well, 500 μl of 1% Triton X-100, 10% glycerol, 20 mM Hepes, pH 7.4, 0.01% BSA was added and incubated at 37° C. with rotation for 30 min to lyse the cells. Samples were transferred into gamma-counting vials and counted for 1 min each.

[2] = tested on: tumor cell proliferation; conditions: in vitro assays, generally observed; cited from earlier work
[3] = tested on: Mink lung epithelial cells (Mv1Lu CCL64); test: Mink lung epithelial cell proliferation inhibition assay; format: cell-based; conditions: for ED50 (half-maximal inhibition of cell proliferation): 4 days, acid phosphatase readout
Protocol: TGF-β is known to inhibit proliferation of mink lung epithelial cells. The mink lung epithelial cell assay was thus used to test the ability of the peptides to mimic the biological activity of TGF-β. Mink lung epithelial cells (ATCC, Rockville, Md., Mv1Lu CCL64) were plated at 0.5-1.0×10^6 cells/plate in 100 mm culture plates and grown in Eagle's minimal essential medium (MEM) supplemented with 50 units/ml penicillin, 50 μg/ml streptomycin, nonessential amino acids, L-glutamine, and 10% fetal bovine serum (FBS). Cells were passaged while the cell density was subconfluent. Cells were detached with trypsin, collected by centrifugation at 800×g for 2 min, and resuspended in the culture medium at 20,000 cells/ml. The cells were plated in 96-well microtiter plates at 1000 cells (50 μl)/well. Peptides TGF-β116-31, TGF-β116-47, TGF-β216-31, TGF-β216-47 in monomeric and dimeric forms were lyophilized in the presence of sterile bovine serum albumin (BSA) carrier. Samples (50 μl) of the peptides were dissolved in the cell culture medium and added to the wells in triplicate. Recombinant human TGF-β2 was used as the standard. The plates were incubated under a 5% CO2 /95% (V/V) air atmosphere at 37° C. for 4 days. The number of cells/well in this assay is proportional to the activity of the constitutively expressed enzyme, acid phosphatase. To measure acid phosphatase activity, the wells were rinsed with phosphate-buffered saline (PBS), filled with 100 μl of 0.1M sodium acetate, pH 5.5/0.1% Triton X-100/100 mM p-nitrophenyl phosphate, and the plates were incubated at 37° C. for 2 hr. Ten μl of 1.0N NaOH was added to each well, and after 20 min at room temperature, the absorbance at 405 nm was measured.

[4] = tested on: TGF-β receptor
Protocol: as §1

[5] = tested on: murine thymocytes; test: Inhibition of murine thymocyte proliferation (3H-thymidine incorporation); format: cell-based, C3H/HeJ mice
Protocol: In order to determine the effect of the peptides on proliferation of cell types other than mink lung epithelial cells, murine thymocytes were exposed to the peptides. Proliferation was measured by determining the amount of ^3 H-thymidine incorporated into the thymocyte DNA in response to the peptides. The cell culture assay was performed as described by Ellingsworth et al., Cell. Immunol., 114:41-54 (1988). Single-cell suspensions of thymocytes were prepared from 4 to 8 week old C3H/HeJ mice and the cells were suspended in Eagle's MEM supplemented with 5% fetal calf serum (FCS), 100 units/ml penicillin, 100 μg/ml streptomycin, 2 mM L-glutamine and 50 μM β-mercaptoethanol to 6.66×10^6 cells/ml. The thymocytes were plated into 96-well microtiter plates at 10^6 cells/well (150 μl). The cells were activated with 1.0 μg/ml of phytohemagglutinin and 8 units/ml of interleukin-1 (IL-1) (Boehringer Mannheim, Indianapolis, Ind.). […] The cells were incubated at 37° C. for 72 hr in a humidified incubator in 5% CO2 -95% air atmosphere. The cells were pulsed with 0.5 μCi/well of ^3 H-thymidine 24 hours prior to cell harvest. The thymocytes were harvested onto glass fiber filters and dried. The amount of ^3 H-thymidine incorporation was determined by liquid scintillation counting method.

[6] = 25 pM 125I-TGF-β2, L6 cells, 1 hr room temperature
[7] = PHA and IL-1 activated thymocytes, 72 hr

Molecule: TGF-β1: full length transforming growth factor β1
- ED50 (competition against binding of 125I-TGF-β1) ([1]; 25 pM 125I-TGF-β1, L6 cells, 1 hr room temperature): 0.01 to 0.03 nM
- Kd ([1]; read-out: apparent dissociation constant, estimated from competitive binding data, 125I-TGF-β1): 0.01 to 0.03 nM

Molecule: TGF-β
- concentration at which saturation is achieved [2]: 10 ng/mL
- concentration for 50% inhibition of tumor cell proliferation [2]: ~0.2 ng/mL

Molecule: CVRQLYIDFRKDLGWKWIHEPKGYHANFCLGP [TGF-β116-47 trimer] (cysteine pairing not given here; also: trimer)
- ED50 (half-maximal inhibition of cell proliferation) [3]: 32.7 nM

Molecule: CLRPLYIDFKRDLGWKWIHEPKGYNANFCAGA [TGF-β216-47 monomer]
- ED50 / activity in words [3]: not active
- ED50 (competition against binding of 125I-TGF-β2) [4, 6]: 30000 nM
- competing against the binding of 125I-TGF-β2 ([4]; at concentrations of up to 30 μM): either inactive or weakly active

Molecule: TGF-β2: full length transforming growth factor β2, used as the standard
- ED50 (inhibition of 3H-thymidine incorporation) [5, 7]: approximately 4 pM

Molecule: CC[C@H](C)[C@H](NC(=O)[C@H](Cc1ccc(O)cc1)NC(=O)[C@H](CC(C)C)NC(=O)[C@H](CCC(N)=O)NC(=O)[C@H](CCCNC(=N)N)NC(=O)[C@@H](NC(=O)[C@@H](N)CSSC[C@H](N)C(=O)N[C@H](C(=O)N[C@@H](CCCNC(=N)N)C(=O)N[C@@H](CCC(N)=O)C(=O)N[C@@H](CC(C)C)C(=O)N[C@@H](Cc1ccc(O)cc1)C(=O)N[C@H](C(=O)N[C@@H](CC(=O)O)C(=O)N[C@@H](Cc1ccccc1)C(=O)N[C@@H](CCCNC(=N)N)C(=O)N[C@@H](CCCCN)C(=O)N[C@@H](CC(=O)O)C(=O)N[C@@H](CC(C)C)C(=O)NCC(=O)N[C@@H](Cc1c[nH]c2ccccc12)C(=O)N[C@@H](CCCCN)C(=O)O)[C@@H](C)CC)C(C)C)C(C)C)C(=O)N[C@@H](CC(=O)O)C(=O)N[C@@H](Cc1ccccc1)C(=O)N[C@@H](CCCNC(=N)N)C(=O)N[C@@H](CCCCN)C(=O)N[C@@H](CC(=O)O)C(=O)N[C@@H](CC(C)C)C(=O)NCC(=O)N[C@@H](Cc1c[nH]c2ccccc12)C(=O)N[C@@H](CCCCN)C(=O)O [TGF-β116-31 dimer] (I: H-CVRQLYIDFRKDLGWK-OH / II: H-CVRQLYIDFRKDLGWK-OH; disulfide I:1-II:1)
- ED50 (competition against binding of 125I-TGF-β2) [4]: 10000 to 15000 nM
- ED50 (competition against binding of 125I-TGF-β1) [1]: 10000 to 15000 nM

Molecule: CVRQLYIDFRKDLGWKWIHEPKGYHANFCLGP [TGF-β116-47 monomer]
- ED50 / activity in words [3]: some activity
- ED50 (half-maximal inhibition of cell proliferation) [3]: 1000 nM
- ED50 (competition against binding of 125I-TGF-β1), in words ([1]; 25 pM 125I-TGF-β1, L6 cells): not active
- competing against the binding of 125I-TGF-β1 [1]: either inactive or weakly active

Molecule: CC[C@H](C)[C@H](NC(=O)[C@H](Cc1ccc(O)cc1)NC(=O)[C@H](CC(C)C)NC(=O)[C@@H]1CCCN1C(=O)[C@H](CCCNC(=N)N)NC(=O)[C@H](CC(C)C)NC(=O)[C@@H](N)CSSC[C@H](N)C(=O)N[C@@H](CC(C)C)C(=O)N[C@@H](CCCNC(=N)N)C(=O)N1CCC[C@H]1C(=O)N[C@@H](CC(C)C)C(=O)N[C@@H](Cc1ccc(O)cc1)C(=O)N[C@H](C(=O)N[C@@H](CC(=O)O)C(=O)N[C@@H](Cc1ccccc1)C(=O)N[C@@H](CCCCN)C(=O)N[C@@H](CCCNC(=N)N)C(=O)N[C@@H](CC(=O)O)C(=O)N[C@@H](CC(C)C)C(=O)NCC(=O)N[C@@H](Cc1c[nH]c2ccccc12)C(=O)N[C@@H](CCCCN)C(=O)O)[C@@H](C)CC)C(=O)N[C@@H](CC(=O)O)C(=O)N[C@@H](Cc1ccccc1)C(=O)N[C@@H](CCCCN)C(=O)N[C@@H](CCCNC(=N)N)C(=O)N[C@@H](CC(=O)O)C(=O)N[C@@H](CC(C)C)C(=O)NCC(=O)N[C@@H](Cc1c[nH]c2ccccc12)C(=O)N[C@@H](CCCCN)C(=O)O [TGF-β216-31 dimer] (I: H-CLRPLYIDFKRDLGWK-OH / II: H-CLRPLYIDFKRDLGWK-OH; disulfide I:1-II:1)
- ED50 (competition against binding of 125I-TGF-β2) [4]: 30000 nM

Molecule: CLRPLYIDFKRDLGWK [TGF-β216-31]
- activity in thymocyte proliferation assay [5]: inactive
- ED50 / activity in words [3]: inactive
- ED50 (competition against binding of 125I-TGF-β2), in words ([4]; 25 pM 125I-TGF-β2, L6 cells): inactive

B1: CLRPLYIDFKRDLGWKWIHEPKGYNANFCAGA [TGF-β216-47 dimer] (peptide)
chain 1: CLRPLYIDFKRDLGWKWIHEPKGYNANFCAGA
chain 2: CLRPLYIDFKRDLGWKWIHEPKGYNANFCAGA
modifications: disulfide (positions not given here); also: disulfide-bonded homodimer, Cys pairing not given here
- ED50 (inhibition of thymocyte proliferation) [5, 7]: 57 nM
- ED50 (half-maximal inhibition of cell proliferation) [3]: 4 to 14 nM
- fold more activity than dimerized TGF-β116-47 ([3]; from ED50): 11-38 fold
- ED50 (competition against binding of 125I-TGF-β2) [4, 6]: 3000 nM
- Kd ([4]; read-out: apparent dissociation constant, estimated from competitive binding data, 125I-TGF-β2): ~3000 nM

B2: CVRQLYIDFRKDLGWKWIHEPKGYHANFCLGP [TGF-β116-47 dimer] (peptide)
chain 1: CVRQLYIDFRKDLGWKWIHEPKGYHANFCLGP
chain 2: CVRQLYIDFRKDLGWKWIHEPKGYHANFCLGP
modifications: disulfide (positions not given here); also: disulfide-bonded homodimer, Cys pairing not given here
- ED50 (competition against binding of 125I-TGF-β1), in words ([1]; 25 pM 125I-TGF-β1, L6 cells): not active
- competing against the binding of 125I-TGF-β1 [1]: either inactive or weakly active
